The text below walks through data of US7202261B2, “Calcilytic compounds” (NPS Pharmaceuticals, Inc., priority 1996, dated 2007).

Molecules are shown by their SMILES. Structures can show the parent of a compound that is named as a salt. Where only a bound is given, the exact number is not on record here.

The first assay deals with T1, human calcium receptor (Homo sapiens, UniProt P41180).
T1 construct: expressed in transfected cells
T1 sequence (P41180 20-1078): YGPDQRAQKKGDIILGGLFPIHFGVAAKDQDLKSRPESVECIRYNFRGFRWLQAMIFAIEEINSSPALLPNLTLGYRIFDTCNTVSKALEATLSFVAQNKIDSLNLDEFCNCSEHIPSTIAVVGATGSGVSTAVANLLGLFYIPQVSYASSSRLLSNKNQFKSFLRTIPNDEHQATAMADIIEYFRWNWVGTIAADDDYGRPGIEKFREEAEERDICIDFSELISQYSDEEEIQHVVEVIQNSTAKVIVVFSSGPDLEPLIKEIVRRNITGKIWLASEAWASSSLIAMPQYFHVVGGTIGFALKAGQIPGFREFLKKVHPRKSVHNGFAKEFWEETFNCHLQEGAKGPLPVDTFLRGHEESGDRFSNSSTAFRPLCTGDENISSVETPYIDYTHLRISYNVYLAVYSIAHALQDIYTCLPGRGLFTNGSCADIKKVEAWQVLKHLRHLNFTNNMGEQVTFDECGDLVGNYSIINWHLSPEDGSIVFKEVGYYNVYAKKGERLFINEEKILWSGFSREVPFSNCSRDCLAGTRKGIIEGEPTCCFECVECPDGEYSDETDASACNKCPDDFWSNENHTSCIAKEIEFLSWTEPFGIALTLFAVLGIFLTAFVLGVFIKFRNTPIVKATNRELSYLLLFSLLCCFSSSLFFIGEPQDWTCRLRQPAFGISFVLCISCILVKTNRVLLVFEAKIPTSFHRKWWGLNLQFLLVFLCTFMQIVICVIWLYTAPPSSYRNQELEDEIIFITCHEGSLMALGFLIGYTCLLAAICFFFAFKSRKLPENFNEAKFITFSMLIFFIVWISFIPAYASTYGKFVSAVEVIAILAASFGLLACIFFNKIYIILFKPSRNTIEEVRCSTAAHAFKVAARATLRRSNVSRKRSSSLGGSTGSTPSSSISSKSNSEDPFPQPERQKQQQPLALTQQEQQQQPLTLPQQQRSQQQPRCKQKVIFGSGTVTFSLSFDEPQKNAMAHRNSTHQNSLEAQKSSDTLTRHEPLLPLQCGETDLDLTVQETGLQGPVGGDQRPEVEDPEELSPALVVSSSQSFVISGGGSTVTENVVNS
The assay can be described thus: Calcium Receptor Inhibitor Assay. The format is cell-based.
Conditions: not given
The method, boiled down:
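Intracellular Ca^2+ measured with fluo-3 at 37° C in stirred cell suspension. Buffer held 1 mM CaCl2 and 1 mg/mL D-glucose. Compound or vehicle added 90 seconds before extracellular Ca^2+ was raised from 1 to 2 mM, and calcilytic activity scored as concentration-dependent block of the intracellular Ca^2+ rise.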
Usually IC50 stands for the concentration needed to halve the response being measured. In the case of `COc1ccc(CC(C)(C)NCC(O)CCCCCCCCO)cc1` (stereo not drawn) [Compound 123, N-(2,10-Dihydroxydecyl)-1,1-dimethyl-2-(4-methoxyphenyl)ethylamine Hydrochloride], the IC50 was below 10000 nM. `COc1ccc(CC(C)(C)NCC(O)Cc2ccc3c(c2)OCO3)cc1` (stereo not drawn) [Compound 124, N-[2-hydroxy-3-(3,4-methylene-dioxyphenyl)propyl]-1,1-dimethyl-2-(4-methoxyphenyl)ethylamine Hydrochloride]: the IC50 was below 10000 nM.

In the case of `COc1ccc(CC(C)(C)NCC(O)COC2CCCCC2C#N)cc1` (stereo not drawn) [Compound 131, N-[2-hydroxy-3-(2-cyano-cyclohexyloxy)propyl-1,1-dimethyl-2-(4-methoxyphenyl)ethylamine Hydrochloride], the 50% inhibitory concentration (IC50) is below 1000 nM.

Still in this assay, the particulars now being: HEK 293 4.0–7 cells stably expressing the human calcium receptor; fluo-3; read-out: IC50 for blocking increases of intracellular Ca2+ elicited by extracellular Ca2+.
On to `Cc1ccc(CC(C)(C)NCC(O)COc2ccccc2)cc1C` (stereo not drawn) [Compound 121, N-(2-Hydroxy-3-phenoxy)propyl)-1,1-dimethyl-2-(3,4-dimethylphenyl)ethylamine Hydrochloride], for which the IC50 is below 1000 nM.

Consider `COc1ccc(CC(C)(C)NC[C@@H](O)COc2ccccc2C#N)cc1` [Compound 122, (R)—N-[2-Hydroxy-3-(2-cyanophenoxy)propyl]-1,1-dimethyl-2-(4-methoxyphenyl)ethylamine Hydrochloride], for which the IC50 was below 1000 nM. Still for that read-out and setting: then `COc1ccc(CC(C)(C)NCC(O)COCCCCCCc2ccccc2)cc1` (stereo not drawn) [Compound 126, N-[2-hydroxy-3-(6-phenyl-hexanoxy)propyl]-1,1-dimethyl-2-(4-methoxyphenyl)ethylamine], with below 1000 nM; and `COc1ccc(CC(C)(C)NCC(O)COCCCCc2ccccc2)cc1` (stereo not drawn) [Compound 127, N-[2-hydroxy-3-(4-phenyl-butanoxy)propyl]-1,1-dimethyl-2-(4-methoxyphenyl)ethylamine], with below 1000 nM; and `COc1ccc(CC(C)(C)NCC(O)COc2ccccc2)cc1F` (stereo not drawn) [Compound 128, N-(2-hydroxy-3-phenoxypropyl)-1,1-dimethyl-2-(3-fluoro-4-methoxyphenyl) ethylamine], with below 10000 nM. As to `COc1ccc(CC(C)(C)NCC(O)COc2ccccc2)c(F)c1` (stereo not drawn) [Compound 129, N-(2-hydroxy-3-phenoxypropyl)-1,1-dimethyl-2-(2-fluoro-4-methoxyphenyl)ethylamine Hydrochloride], the IC50 is below 1000 nM. Consider `COc1ccc(CC(C)(C)NCC(O)COc2cccc3c(OC)cccc23)cc1` (stereo not drawn) [Compound 130, N-[2-hydroxy-3-(5-methoxy-1-napthoxy)propyl]-1,1-dimethyl-2-(4-methoxyphenyl)ethylamine Hydrochloride], for which the IC50 was below 1000 nM. For `COc1ccc(CC(C)(C)NCC(O)COc2ccc(OC)c(OC)c2)cc1` (stereo not drawn) [Compound 132, N-[2-hydroxy-3-(3,4-dimethoxyphenoxy)propyl]-1,1-dimethyl-2-(4-methoxyphenyl)ethylamine Hydrochloride], the 50% inhibitory concentration (IC50) was below 10000 nM. On the same count and under the same terms, then `COc1ccc(CC(C)(C)NCC(O)COc2cc(OC)cc(OC)c2)cc1` (stereo not drawn) [Compound 133, N-[2-hydroxy-3-(3,5-dimethoxyphenoxy)propyl]-1,1-dimethyl-2-(4-methoxyphenyl)ethylamine Hydrochloride], with below 1000 nM. The same measure, in the same setting: then `COC(=O)c1ccccc1OCC(O)CNC(C)(C)Cc1ccc(OC)cc1` (stereo not drawn) [Compound 134, N-[2-hydroxy-3-(2-carbomethoxyphenoxy)propyl]-1,1-dimethyl-2-(4-methoxyphenyl)ethylamine Hydrochloride], with below 1000 nM.

As to `COc1ccc(CC(C)(C)NCC(O)COc2ccc(C)cc2)cc1` (stereo not drawn) [Compound 135, N-[2-hydroxy-3-(4-methylphenoxy)propyl]-1,1-dimethyl-2-(4-methoxyphenyl)ethylamine Hydrochloride], the half-maximal inhibitory concentration (IC50) is below 1000 nM. With `COc1ccc(CC(C)(C)NCC(O)COc2cccc(Cl)c2Cl)cc1` (stereo not drawn) [Compound 136, N-[2-hydroxy-3-(2,3-dichlorophenoxy)propyl]-1,1-dimethyl-2-(4-methoxyphenyl)ethylamine Hydrochloride], the half-inhibitory concentration (IC50) was below 1000 nM. The same measure, in the same setting: then `COc1ccc(CC(C)(C)NCC(O)COc2cc(Cl)cc(Cl)c2)cc1` (stereo not drawn) [Compound 137, N-[2-hydroxy-3-(3,5-dichlorophenoxy)propyl]-1,1-dimethyl-2-(4-methoxyphenyl)ethylamine Hydrochloride], with below 1000 nM. On the same count and under the same terms, then `COc1ccc(CC(C)(C)NCC(O)COc2ccc(Cl)cc2Cl)cc1` (stereo not drawn) [Compound 138, N-[2-hydroxy-3-(2,4-dichlorophenoxy)propyl]-1,1-dimethyl-2-(4-methoxyphenyl)ethylamine Hydrochloride], with below 1000 nM; and `COc1ccc(CC(C)(C)NCC(O)COc2ccc(Cl)c(Cl)c2)cc1` (stereo not drawn) [Compound 139, N-[2-hydroxy-3-(3,4-dichlorophenoxy)propyl]-1,1-dimethyl-2-(4-methoxyphenyl)ethylamine Hydrochloride], with below 1000 nM; and `COc1ccc(CC(C)(C)NCC(O)COc2cc(Cl)ccc2Cl)cc1` (stereo not drawn) [Compound 140, N-[2-hydroxy-3-(2,5-dichlorophenoxy)propyl]-1,1-dimethyl-2-(4-methoxyphenyl)ethylamine Hydrochloride], with below 1000 nM. Same read-out and setting: the result for `CCc1ccc(OCC(O)CNC(C)(C)Cc2ccc(OC)cc2)cc1` (stereo not drawn) [Compound 141, N-[2-hydroxy-3-(4-ethylphenoxy)propyl]-1,1-dimethyl-2-(4-methoxyphenyl)ethylamine Hydrochloride] reads below 1000 nM. Turning to `COc1ccc(CC(C)(C)NCC(O)COc2ccccc2C#N)cc1` (stereo not drawn) [Compound 142, N-[2-hydroxy-3-(2-cyanophenoxy)propyl]-1,1-dimethyl-2-(4-methoxyphenyl)ethylamine Hydrochloride], the half-inhibitory concentration (IC50) was below 1000 nM. In the case of `COc1ccc(CC(C)(C)NCC(O)COc2cccc([N+](=O)[O-])c2)cc1` (stereo not drawn) [Compound 143, N-[2-hydroxy-3-(3-nitrophenoxy)propyl]-1,1-dimethyl-2-(4-methoxyphenyl)ethylamine Hydrochloride], the 50% inhibitory concentration (IC50) was below 1000 nM. Take `CCOc1ccc(OCC(O)CNC(C)(C)Cc2ccc(OC)cc2)cc1` (stereo not drawn) [Compound 144, N-[2-hydroxy-3-(4-ethoxyphenoxy)propyl]-1,1-dimethyl-2-(4-methoxyphenyl)ethylamine Hydrochloride]: the half-maximal inhibitory concentration (IC50) is below 10000 nM.

`COc1ccc(CC(C)(C)NCC(O)COc2ccc(C(C)C)cc2)cc1` (stereo not drawn) [Compound 145, N-[2-hydroxy-3-(4-iso-propylphenoxy)propyl]-1,1-dimethyl-2-(4-methoxyphenyl)ethylamine Hydrochloride]: the IC50 was below 1000 nM.

Turning to `COc1ccc(CC(C)(C)NCC(O)COc2cccc(C(C)C)c2)cc1` (stereo not drawn) [Compound 146, N-[2-hydroxy-3-(3-iso-propylphenoxy)propyl]-1,1-dimethyl-2-(4-methoxyphenyl)ethylamine Hydrochloride], the 50% inhibitory concentration (IC50) was below 1000 nM. Consider `CCOc1cccc(OCC(O)CNC(C)(C)Cc2ccc(OC)cc2)c1` (stereo not drawn) [Compound 147, N-[2-hydroxy-3-(3-ethoxyphenoxy)propyl]-1,1-dimethyl-2-(4-methoxyphenyl)ethylamine Hydrochloride], for which the IC50 was below 10000 nM.

In the case of `CCCc1ccccc1OCC(O)CNC(C)(C)Cc1ccc(OC)cc1` (stereo not drawn) [Compound 148, N-[2-hydroxy-3-(2-n-propylphenoxy)propyl]-1,1-dimethyl-2-(4-methoxyphenyl)ethylamine Hydrochloride], the half-inhibitory concentration (IC50) is below 1000 nM.
